Test results taken from US20240299400A1, “Transcription Factor GLI1 Inhibitors and Uses Thereof” (University of Connecticut, priority 2023, published 2024).

Experiments:
GLI1-ZFD = target: T1, GLI1-ZFD (Homo sapiens, UniProt P08151); test: Microscale thermophoresis (MST) binding to GLI1-ZFD
T1 construct: GLI1-ZFD Expression and Purification; made in house
T1 sequence (P08151 234-388 limits assumed): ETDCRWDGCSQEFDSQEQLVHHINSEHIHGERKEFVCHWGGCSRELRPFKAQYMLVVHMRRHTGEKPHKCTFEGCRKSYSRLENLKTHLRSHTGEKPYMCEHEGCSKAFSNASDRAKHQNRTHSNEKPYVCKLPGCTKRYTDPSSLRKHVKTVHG
In short: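 RED-NHS–labeled recombinant GLI1 zinc-finger domain (200 nM) was mixed with compound dilutions (DMSO<5%) in 50 mM HEPES pH 8.3, 100 mM NaCl. Binding was read by microscale thermophoresis on a Monolith NT.115.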

GLI1 protein levels = test: Western blot GLI1 protein expression in ASZ001 cells; assay type: cell-based, murine; conditions: 10 and 25 μM
Procedure: (§1) ASZ001 cells were plated as described above and treated with drugs or vehicle control. Following incubation, cells were washed with chilled PBS and lysed with RIPA buffer containing […] PMSF protease inhibitor (Thermo Scientific #26978). Supernatant was collected following 15 min centrifugation at 12,000 rpm and 4° C. Protein concentrations from cell extracts were determined through the BCA kit (Pierce #23228) per the manufacturer's instructions. Proteins from either cell lysate or cell-free biochemical assay were then loaded on 12% SDS-PAGE. Following electrophoresis, proteins were transferred onto nitrocellulose membrane at 100 V for 120 min at 4° C. On a clean tray with constant gentle shaking, the membrane was sequentially submerged in 5% BSA for 1 h, and incubated with the primary antibody indicated overnight at 4° C. After washes with TBST, the appropriate secondary antibody was added to the tray for a 2 h incubation at RT. Chemiluminescent detection on film was visualized using ECL reagents (BioRad #1705060) and subsequently quantitated using Image J (http://imagej.nih.gov). Primary antibodies were used at 1:2000 dilution and are as follows: GLI1 (#MA5-32553); Gli2 (#PA5-79314); β-Actin (#PA1-16889). Secondary antibody (Goat anti-Rabbit, #32460) was used at a 1:5000 dilution. All antibodies were purchased from Invitrogen.

GLI2 protein expression = test: Western blot GLI2 protein expression in ASZ001 cells; assay type: cell-based, murine; conditions: 25 μM
Procedure: as §1

Row | Compound | binding to GLI1 (in words) (GLI1-ZFD; MST binding assay) | Kd (GLI1-ZFD; Table 5, Ave ± SEM) [µM] | Kd (GLI1-ZFD; Table 7, Ave ± SEM) [µM] | GLI1 protein levels (in words) (GLI1 protein levels) | GLI2 protein expression (in words) (GLI2 protein expression)
1 | CCN(CC)c1ccc(C(Nc2ccccn2)c2ccc3ccc(C)nc3c2OC)cc1 (centres unmarked) [Compound 20, N-((4-Diethylaminophenyl)(8-methoxy-2-methylquinolin-7-yl)methyl)pyridin-2-amine] | does not bind to GLI1 | > 125 |  |  | 
2 | Cc1ccc2ccc(C(Nc3ccccn3)c3ccncc3)c(O)c2n1 (centres unmarked) [Compound 39, 7-((Pyridin-4-yl)(pyridin-2-ylamino)methyl)-2-methylquinolin-8-ol] |  |  | 9.1 ± 1.5 | significantly reduced | significantly suppressed
3 | Cc1ccc2ccc(C(Nc3ccccn3)c3ccc(N4CCCC4=O)cc3)c(O)c2n1 (centres unmarked) [Compound 48, 7-((4-(2-Oxopyrrolidin-1-yl)phenyl)(pyridin-2-ylamino)methyl)-2-methylquinolin-8-ol] |  |  | 8 ± 3.1 | significantly reduced | significantly suppressed
